In patent US7576108B2, “Substituted arylcyclopropylacetamides as glucokinase activators” (Eli Lilly and Company, priority 2003, dated 2009):

Target: T1, purified recombinant human islet GK (Homo sapiens, UniProt P35557)
T1 construct: (His)6; made in house; host or cells: E. coli
T1 sequence (P35557 1-465): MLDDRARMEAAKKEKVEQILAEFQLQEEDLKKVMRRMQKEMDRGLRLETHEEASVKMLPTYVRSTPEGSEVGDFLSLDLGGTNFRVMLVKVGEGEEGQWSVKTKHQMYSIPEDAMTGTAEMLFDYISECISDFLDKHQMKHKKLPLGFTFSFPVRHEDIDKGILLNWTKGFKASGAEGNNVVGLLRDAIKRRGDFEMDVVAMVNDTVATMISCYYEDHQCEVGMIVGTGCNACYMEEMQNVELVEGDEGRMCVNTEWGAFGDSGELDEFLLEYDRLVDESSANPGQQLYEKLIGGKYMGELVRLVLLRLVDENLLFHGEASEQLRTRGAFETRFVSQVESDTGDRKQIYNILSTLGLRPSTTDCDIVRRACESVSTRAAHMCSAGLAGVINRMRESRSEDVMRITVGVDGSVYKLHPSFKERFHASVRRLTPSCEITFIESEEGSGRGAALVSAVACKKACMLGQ
Experiment: Enzymatic coupled glucokinase (GK) assay (NADH production, absorbance at 340 nm)
Format: biochemical
Conditions: concentration of activator that produced 50% of maximum increase in the activity of GK; at 10 mM glucose
From the text: An enzymatic coupled glucokinase (GK) assay using purified recombinant human islet GK was used to evaluate effects of the activators. In this assay, GK catalyzes glucose phosphorylation in the presence of ATP. The product of this reaction, glucose-6-phosphate, is then oxidized by an excess of glucose-6-dehydrogenase to produce gluconate-6-phosphate with concomitant reduction of NAD^+ to NADH (Davidson and Arion, 1987). The following outlines the two reactions involved: • Glucose+ATP→Glucose-6-P+ADP (Glucokinase) • Glucose-6-P+NAD→Gluconate-6-P+NADH (glucose-6-P dehydrogenase)
The NADH production detected by absorbance at 340 nm is used to monitor the enzymatic activity.
The human islet GK isoform was expressed in E. coli as (His)6-tagged fusion protein and purified with metal chelate affinity chromatography (Tiedge et al., 1997). After purification the enzyme was stored in aliquots at concentration 0.8 mg/ml in 25 mM NaH2PO4, 150 mM NaCl, 100 mM imidazole, 1 mM DTT, 50% glycerol at −80° C.
The assay was performed in flat bottom 96-well plates in a final incubation volume of 100 μl. The incubation mixture consisted of 25 mM HEPES (pH7.4), 50 mM KCl, 2.5 mM MgCl2, 2 mM dithiothreitol, 4 U/ml glucose-6-phosphate dehydrogenase from Leuconostoc mesenteroides, 5 mM ATP, 1 mM NAD and 10 mM glucose. All reagents were from Sigma-Aldrich Co. (St. Louis, Mo.). Test compounds were dissolved in DMSO and then added to the reaction mixture giving the final DMSO concentration of 10%.
The reaction was initiated by addition of 20 μl GK and run for 20 min at 37° C. The amount of formed NADH was measured as an increase in absorbance at 340 nm using a microplate reader.
The concentration of activator that produced 50% of maximum increase in the activity of GK (EC50) was calculated.

| SMILES | EC50 |
| --- | --- |
| CS(=O)(=O)c1ccc([C@@]2(C(=O)Nc3nccs3)C[C@H]2CC2CCCCC2)cc1 (racemic) [Example 2, (±)-(E)-2-Cyclohexylmethyl-1-(4-methanesulfonyl-phenyl)-cyclopropanecarboxylic acid thiazol-2-ylamide] | 1.18 µM |
| CC(C)C[C@@H]1C[C@]1(C(=O)Nc1nccs1)c1ccc(S(C)(=O)=O)cc1 (racemic) [Example 3, (±)-(E)-2-Isobutyl-1-(4-methanesulfonyl-phenyl)-cyclopropanecarboxylic acid thiazol-2-ylamide] | 5.46 µM |
| CCN(CC)CCCS(=O)(=O)c1ccc([C@@]2(C(=O)Nc3nccs3)C[C@H]2C2CCCCC2)cc1 (racemic) [Example 7, (±)-(E)-2-Cyclohexyl-1-[4-(3-diethylamino-propane-1-sulfonyl)-phenyl]-cyclopropanecarboxylic acid thiazol-2-ylamide] | 0.7 µM |
| Cc1nnc(NC(=O)[C@]2(c3ccc(S(C)(=O)=O)cc3)C[C@H]2C2CCCC2)s1 (racemic) [Example 11, (±)-(E)-2-Cyclopentyl-1-(4-methanesulfonyl-phenyl)-cyclopropanecarboxylic acid (5-methyl-[1,3,4]thiadiazol-2-yl)-amide] | 9.32 µM |
| Cc1cc(NC(=O)[C@]2(c3ccc(S(C)(=O)=O)cc3)C[C@H]2C2CCCC2)no1 (racemic) [Example 13, (±)-(E)-2-Cyclopentyl-1-(4-methanesulfonyl-phenyl)-cyclopropanecarboxylic acid (5-methyl-isoxazol-3-yl)-amide] | 12.7 µM |
| COC(=O)c1ccc([C@@]2(C(=O)Nc3nccs3)C[C@H]2C2CCCC2)cc1 (racemic) [Example 73, (±)-(E)-4-[2-Cyclopentyl-1-(thiazol-2-ylcarbamoyl)-cyclopropyl]-benzoic acid methyl ester] | 3.66 µM |
| Cc1cnc(NC(=O)[C@]2(c3ccc(S(C)(=O)=O)cc3)C[C@H]2C2CCCCC2)s1 (racemic) [Example 77, (±)-(E)-2-Cyclohexyl-1-(4-methanesulfonyl-phenyl)-cyclopropanecarboxylic acid (5-methyl-thiazol-2-yl)-amide] | 0.39 µM |
| CS(=O)(=O)c1ccc(C2(C(=O)Nc3nccs3)C(C3CCCCC3)C2(F)F)cc1 (single isomer, unassigned) [63 (Isomer 2), (±)-(E)-3-Cyclohexyl-2,2-difluoro-1-(4-methanesulfonyl-phenyl)-cyclopropanecarboxylic acid thiazol-2-ylamide] | 5.3 µM |
| O=C(Nc1nccs1)[C@]1(c2ccc(S(=O)(=O)NCCc3ccccn3)cc2)C[C@H]1C1CCCC1 (single isomer, unassigned) [Example 26, (E)-2-Cyclopentyl-1-[4-(2-pyridin-2-yl-ethylsulfamoyl)-phenyl]-cyclopropanecarboxylic acid thiazol-2-ylamide] | 0.36 µM |

Other lines, results leading:

| EC50 | SMILES |
| --- | --- |
| 1.9 µM | CS(=O)(=O)c1csc([C@@]2(C(=O)Nc3nccs3)C[C@H]2C2CCCC2)c1 (racemic) [Example 20, (±)-(Z)-2-Cyclopentyl-1-(4-methanesulfonyl-thiophen-2-yl)-cyclopropanecarboxylic acid thiazol-2-ylamide] |
| 7.61 µM | CS(=O)(=O)c1cccc([C@@]2(C(=O)Nc3nccs3)C[C@H]2C2CCCCC2)c1 (racemic) [Example 35, (±)-(E)-2-Cyclohexyl-1-(3-methanesulfonyl-phenyl)-cyclopropanecarboxylic acid thiazol-2-ylamide] |
| 0.16 µM | CS(=O)(=O)c1ccc([C@@]2(C(=O)Nc3nccs3)C[C@H]2C2CCCCC2)cc1C(F)(F)F (racemic) [Example 45, (±)-(E)-2-Cyclohexyl-1-(4-methanesulfonyl-3-trifluoromethyl-phenyl)-cyclopropanecarboxylic acid thiazol-2-ylamide] |
| 8.69 µM | COc1ccc([C@@]2(C(=O)Nc3nccs3)C[C@H]2C2CCCCC2)cc1 (racemic) [Example 48, (±)-(E)-[2-Cyclohexyl-1-(4-methoxy-phenyl)-cyclopropanecarboxylic acid thiazol-2-ylamide]] |
| 7.61 µM | CNC(=O)c1ccc([C@@]2(C(=O)Nc3nccs3)C[C@H]2C2CCCCC2)cc1 (racemic) [Example 50, (±)-(E)4-[2-Cyclohexyl-1-(thiazol-2-ylcarbamoyl)-cyclopropyl]-N-methyl-benzamide] |
| 10.5 µM | CC(=O)Nc1ccc([C@@]2(C(=O)Nc3nccs3)C[C@H]2C2CCCCC2)cc1 (racemic) [Example 51, (±)-(E)-1-(4-Acetylamino-phenyl)-2-cyclohexyl-cyclopropanecarboxylic acid thiazol-2-ylamide] |
| 3.82 µM | CS(=O)(=O)Nc1ccc([C@@]2(C(=O)Nc3nccs3)C[C@H]2C2CCCCC2)cc1 (racemic) [Example 52, (±)-(E)-2-Cyclohexyl-1-(4-methanesulfonylamino-phenyl)-cyclopropanecarboxylic acid thiazol-2-ylamide] |
| 0.15 µM | CS(=O)(=O)c1ccc([C@@]2(C(=O)Nc3nccs3)C[C@H]2C2CCCCC2)cc1 (single isomer, unassigned) [55 (Isomer 1)] |
